Data on 6 molecules can be found in patent US8716242B2, “β-hairpin peptidomimetics” (priority 2009, dated 2014).

Like-named read-outs stand apart in the source and are kept apart here. Numbered stars: 1 amine (or outer) side, 2 acyl side, 3 side chain; on linkers, the order of the positions; unused ones are H or OH. Bridge positions count the residues as written; N and C are the ends. Square brackets hold non-standard residues; d marks the D form. Side chains are listed from the residue outwards. Peptide text beside a SMILES is read from it. * marks the point of attachment. Cholyl = C[C@H](CCC(=O)*)[C@H]1CC[C@H]2[C@@H]3[C@H](O)C[C@@H]4C[C@H](O)CC[C@]4(C)[C@H]3C[C@H](O)[C@]12C; Benzoyl(4-dodecyloxy) = CCCCCCCCCCCCOc1ccc(C(=O)*)cc1; Benzoyl(4-octyloxy) = CCCCCCCCOc1ccc(C(=O)*)cc1; γGlu = O=C(O)[C@H](CCC(=O)[*:2])N[*:1]; Octyloxycarbonyl = CCCCCCCCOC(=O)*; Lauroyl = CCCCCCCCCCCC(=O)*; Dab = NCC[C@H](N)C(=O)O

For orientation: GI50 means the concentration giving 50% growth inhibition. A word on the IC50: it is the concentration needed to halve the response being measured.

Data set [1] relates to intracranial glioblastoma and medulloblastoma xenografts. The settings on record: systemic administration; cited from earlier work.
A short description of data set [2]: Cytotoxicity, MTT reduction assay, COS-7 cells. The data set is classed as cell-based. The following applies: African green monkey, COS-7 cells (CRL-1651), 12.5-50 μM. In short, it runs like this:
(§1)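 HELA (4000/well) and COS-7 (3400/well) cells were grown 24 h, then exposed 48 h at 37° C to peptides at 12.5, 25 and 50 μM in triplicate. MTT reduction read at 595 nm; growth % relative to time-zero, and GI50 interpolated by trend line.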
(Formazan colour is commonly taken as a measure of viable cells.)

The target of a further data set is T1, human CXCR4 (Homo sapiens, UniProt P61073).
T1 construct: expressed in transfected cells; host or cells: mouse pre-B cell line 300-19
T1 sequence (P61073 whole entry): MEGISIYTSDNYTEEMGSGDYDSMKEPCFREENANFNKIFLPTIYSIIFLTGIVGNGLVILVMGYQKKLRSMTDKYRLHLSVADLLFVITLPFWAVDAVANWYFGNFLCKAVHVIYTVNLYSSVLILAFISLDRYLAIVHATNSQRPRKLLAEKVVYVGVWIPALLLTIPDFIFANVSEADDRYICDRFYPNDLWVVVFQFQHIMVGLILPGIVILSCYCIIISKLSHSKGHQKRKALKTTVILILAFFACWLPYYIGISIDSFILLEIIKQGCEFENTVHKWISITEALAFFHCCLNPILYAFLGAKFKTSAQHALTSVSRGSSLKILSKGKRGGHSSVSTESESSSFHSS
The data set is described as follows: Ca2+-assay: CXCR4-antagonizing activity (SDF-1 induced calcium mobilization). The data set is classed as cell-based. In short, it runs like this: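 Mouse pre-B 300-19 cells stably expressing human CXCR4, loaded with Calcium 4 dye in HBSS/20 mM HEPES pH 7.4/0.1% BSA for 1 h at RT. Peptides added before SDF-1; fluorescence (ex 485/em 525 nm) followed for 90 s. IC50 from four-parameter logistic fit of % maximal SDF-1 response.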

Data set [3] deals with human red blood cells (hRBC). The data set is described as follows: Hemolysis of human red blood cells. The format is cell-based. The following applies: 20% hRBC, 1 h, 37° C. Summed up:
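Washed fresh human erythrocytes (20% v/v, ~0.9×10^9 cells/mL final) incubated with compound at 100 μM for 1 h at 37 °C with shaking. Supernatant OD540 read; % hemolysis expressed relative to 2.5% Triton X-100 lysis (100%), with PBS/0.001% acetic acid as 0%.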

A short description of data set [4]: Plasma stability in human plasma. The data set is classed as in vitro ADME. The settings on record: human plasma, 37° C.; for remaining at 24 h, 10 μM: 1440 min, read-out: human pl. cpd left at 1440 min. Summed up: (§2)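 Peptides (1 mM DMSO/H2O stock) were spiked into human or mouse plasma in triplicate and incubated at 37 °C, sampling from 0 to 1440 min. Samples were quenched in formic acid/acetonitrile and analysed by LC/MS MRM. Remaining percent of t=0 was calculated and T1/2 derived by trend fitting.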

Data set [5] in a line: Cytotoxicity, MTT reduction assay, HELA cells. The format is cell-based. The settings on record: human, HELA cells (Acc57), 12.5-50 μM. Summed up: as §1
A short description of data set [6]: Plasma stability in mouse plasma. The settings on record: mouse plasma, 37° C.; for remaining at 24 h, 10 μM: 1440 min, read-out: mouse pl. cpd left at 1440 min. The format is in vitro ADME. In short, it runs like this:
as §2

[7] abbreviates: mouse pre-B cell line 300-19 transfected with human CXCR4, SDF-1 induced Ca2+ mobilization, read-out: IC50% [nM] ± SD, CXCR4 receptor.

`c1cc(CN2CCCNCCNCCCNCC2)ccc1CN1CCCNCCNCCCNCC1` [AMD3100]: the “growth of intracranial glioblastoma and medulloblastoma xenografts” value in data set [1] is listed as “inhibits growth”.

For `CCCCCCCCOc1ccc(C(=O)NCCCC[C@@H]2NC(=O)[C@H](Cc3ccc(O)cc3)NC(=O)[C@@H]3CSSC[C@H](NC(=O)[C@H](C)NC(=O)[C@H](Cc4c[nH]cn4)NC(=O)[C@H](Cc4ccc(O)cc4)NC(=O)[C@@H]4CCCN4C(=O)[C@H]4CCCN4C(=O)[C@H](CCCCN)NC2=O)C(=O)N[C@@H](CCCNC(=N)N)C(=O)N[C@@H](C)C(=O)N2CCC[C@@H]2C(=O)N[C@@H](CCN)C(=O)N[C@@H](CCCNC(=N)N)C(=O)N[C@@H](Cc2ccc(O)cc2)C(=O)N3)cc1` [Ex. 23] (cyclo(YHACRA[dP][Dab]RYCYK(Benzoyl(4-octyloxy))K[dP]P); disulfide 4-11), the GI50 at 48 h in data set [2] was greater than 50 µM; in data set [5], greater than 22 µM. In addition, the IC50 on human CXCR4 amounted to 8.3 ± 3.2 nM. In data set [3], the “Hemolysis at 100 μM” value is 7.8%. The remaining at 24 h, 10 μM was determined as 100% in data set [4] and 74% in data set [6]. Further, in data set [4] (up to 1440 min), the “human pl. T1/2” value stood at 24 h. The “mouse pl. T1/2” value in data set [6] (up to 1440 min) came to 24 h.

In the case of `CCCCCCCCCCCCOc1ccc(C(=O)NCCCC[C@@H]2NC(=O)[C@H](Cc3ccc(O)cc3)NC(=O)[C@@H]3CSSC[C@H](NC(=O)[C@H](Cc4ccc(O)cc4)NC(=O)[C@H](Cc4c[nH]cn4)NC(=O)[C@H](Cc4ccc(O)cc4)NC(=O)[C@@H]4CCCN4C(=O)[C@H]4CCCN4C(=O)[C@H](CCCCN)NC2=O)C(=O)N[C@@H](CO)C(=O)N[C@@H](C)C(=O)N2CCC[C@@H]2C(=O)N[C@@H](CCN)C(=O)N[C@@H](CCCNC(=N)N)C(=O)N[C@@H](Cc2ccc(O)cc2)C(=O)N3)cc1` [Ex. 24] (cyclo(YHYCSA[dP][Dab]RYCYK(Benzoyl(4-dodecyloxy))K[dP]P); disulfide 4-11), the 50% growth inhibitory concentration (GI50) at 48 h is greater than 50 µM in data set [2] and greater than 29 µM in data set [5]. For the same molecule, the IC50 at human CXCR4 came out at 6.1 ± 4.5 nM. Moreover, the “Hemolysis at 100 μM” value in data set [3] was 10.9%. Moreover, the values for the remaining at 24 h, 10 μM in data set [4] and in data set [6] were 24% and 22%, respectively. The half-life at 10 μM came to 2.12 h in data set [4] (up to 1440 min, read-out: human pl. T1/2) and 9.27 h in data set [6] (up to 1440 min, read-out: mouse pl. T1/2).

For the molecule `C[C@H](CCC(=O)NCC(=O)NCCCC[C@@H]1NC(=O)[C@H](CCC(N)=O)NC(=O)[C@H](Cc2ccc(O)cc2)NC(=O)[C@@H]2CSSC[C@H](NC(=O)[C@H]([C@@H](C)O)NC(=O)[C@H](Cc3c[nH]cn3)NC(=O)[C@H](Cc3ccc(O)cc3)NC(=O)[C@@H]3CCCN3C(=O)[C@H]3CCCN3C1=O)C(=O)N[C@@H](CCCNC(=N)N)C(=O)NCC(=O)N1CCC[C@@H]1C(=O)N[C@@H](CCN)C(=O)N[C@@H](CCCNC(=N)N)C(=O)N[C@@H](Cc1ccc(O)cc1)C(=O)N2)[C@H]1CC[C@H]2[C@@H]3[C@H](O)C[C@@H]4C[C@H](O)CC[C@]4(C)[C@H]3C[C@H](O)[C@]12C` [Ex. 34] (cyclo(YHTCRG[dP][Dab]RYCYQK([Gly-Cholyl])[dP]P); disulfide 4-11), the 50% growth inhibitory concentration (GI50) at 48 h in data set [2] was greater than 50 µM; in data set [5] it was greater than 45 µM. The IC50 on human CXCR4 was found to be 7.2 ± 0.3 nM. In data set [3], the “Hemolysis at 100 μM” value worked out at 0.6%. Further, the values for the remaining at 24 h, 10 μM in data set [4] and in data set [6] were 100% and 87%, respectively. Besides, the “human pl. T1/2” value in data set [4] (up to 1440 min) turned out to be 24 h. In data set [6] (up to 1440 min), the “mouse pl. T1/2” value worked out at 24 h.

`CCCCCCCCOC(=O)NC(=N)NCCC[C@@H]1NC(=O)[C@H](CCN)NC(=O)[C@H]2CCCN2C(=O)[C@H](C)NC(=O)[C@H](CO)NC(=O)[C@@H]2CSSC[C@H](NC(=O)[C@H](Cc3ccc(O)cc3)NC1=O)C(=O)N[C@@H](Cc1ccc(O)cc1)C(=O)N[C@@H](CCC(N)=O)C(=O)N[C@@H](CCCCN)C(=O)N1CCC[C@@H]1C(=O)N1CCC[C@H]1C(=O)N[C@@H](Cc1ccc(O)cc1)C(=O)N[C@@H](Cc1c[nH]cn1)C(=O)N[C@@H](Cc1ccc(O)cc1)C(=O)N2` [compound 6] (cyclo(YHYCSA[dP][Dab]R(Octyloxycarbonyl)YCYQK[dP]P); disulfide 4-11): the figures for the GI50 at 48 h in data set [2] and in data set [5] were greater than 35 µM and greater than 10 µM, respectively. Further, on human CXCR4 (setting [7]), the IC50 came out at 28.5 ± 9 nM. In addition, the “Hemolysis at 100 μM” value in data set [3] is reported as 0.7%. Moreover, the remaining at 24 h, 10 μM in data set [4] came out at 76%; in data set [6], 92%. The “human pl. T1/2” value in data set [4] (up to 1440 min) turned out to be 24 h. In addition, the “mouse pl. T1/2” value in data set [6] (up to 1440 min) was found to be 24 h.

As to `CCCCCCCCCCCC(=O)N[C@@H](CCC(=O)NCCCC[C@@H]1NC(=O)[C@H](Cc2ccc(O)cc2)NC(=O)[C@@H]2CSSC[C@H](NC(=O)[C@H](C)NC(=O)[C@H](Cc3c[nH]cn3)NC(=O)[C@H](Cc3ccc(O)cc3)NC(=O)[C@@H]3CCCN3C(=O)[C@H]3CCCN3C(=O)[C@H](CCCCN)NC1=O)C(=O)N[C@@H](CCCNC(=N)N)C(=O)NCC(=O)N1CCC[C@@H]1C(=O)N[C@@H](CCN)C(=O)N[C@@H](CCCNC(=N)N)C(=O)N[C@@H](Cc1ccc(O)cc1)C(=O)N2)C(=O)O` [compound 27] (cyclo(YHACRG[dP][Dab]RYCYK([γGlu-Lauroyl])K[dP]P); disulfide 4-11), the GI50 at 48 h in data set [2] is greater than 50 µM; in data set [5], greater than 48 µM. In addition, the IC50 at human CXCR4 (setting [7]) was found to be 2.6 ± 0.7 nM. The “Hemolysis at 100 μM” value in data set [3] came out at 1.6%. Moreover, the remaining at 24 h, 10 μM in data set [4] was 75%; in data set [6] it was 22%. Further, the “human pl. T1/2” value in data set [4] (up to 1440 min) was determined as 24 h. Further, the “mouse pl. T1/2” value in data set [6] (up to 1440 min) worked out at 24 h.
